The record followed here is patent publication US8895069B2, “Drug delivery system using hyaluronic acid-peptide conjugate micelle” (Postech Academy-Industry Foundation, priority 2011, dated 2014).

Ends that are not written are not given here.

Test [1] concerns retinal and choroidal neovascularization (CNV). Kind of test: Laser-induced retinal and choroidal neovascularization (CNV). The test is classed as in vivo, Brovin-Norway (BN) male rats. Particulars: negative control = 100%; intravitreal 10 μL, peptide concentration 10 mg/ml; 2 weeks after laser; conjugate = higher peptide content. As for the experimental part: Four groups consisted of a negative control group, a hyaluronic acid test group, an anti-Flt1 peptide (GGNQWFI) (SEQ ID NO: 3) test group, a test group of the hyaluronic acid-peptide conjugate with a higher peptide content as prepared from Preparation Example 3 (HA-GGNQWFI(2)). The anti-Flt1 peptide sample and the hyaluronic acid-peptide conjugate sample were made to have an identical peptide concentration of 10 mg/ml. First, the rat was put under anesthesia by being treated with 0.2 mL of a mixed solution (1:1) of 100 mg/ml of ketamine hydrochloride and 20 mg/ml of xylazine hydrochloride. […] The effect of inhibiting retinal and choroidal neovascularization was determined with a fluorescence microscope analysis using dextran-FITC (MW=40,000) after 2 weeks from the laser-induced damage. After being put under anesthesia, the rat was injected with 500 μL of a dextran-FITC solution (25 mg/mL) at its tail vein, and in 5 minutes, the choroid was separated and observed with a fluorescence microscope equipped with a digital camera (Olympus, Tokyo, Japan). The obtained images were analyzed with Image J program (NIH, Bethesda, Md.).

In test [2] the test system is retinal blood vessel. Kind of test: Electron microscopy of retinal blood vessel in diabetic retinopathy. The test is classed as in vivo, Sprague Dawley (SD) male rats. Conditions: diabetic retinopathy rats.
For test [3], the system named is lung inflammation. Kind of test: Bronchoalveolar lavage (BAL) cellularity in OVA/LPS asthma model. The test is classed as in vivo, BALB/c mice. Conditions: intranasal. As to the method: As the laboratory mouse, BALB/c mice (female, 6 week old, 5 per each group) were used. Five groups consisted of a normal control group (PBS-PBS: wherein asthma was not induced and the mice were treated with PBS), a negative control group (OVA/LPS10-OVA: wherein asthma was induced by using OVA and LPS, and the mice were treated with PBS only), a hyaluronic acid test group, an anti-Flt1 peptide (GGNQWFI) (SEQ ID NO: 3) test group, and a test group of the hyaluronic acid-peptide conjugate obtained from Preparation Example 3. The dose of the hyaluronic acid-peptide conjugate was changed between 10 […].
First, in order to make a mouse asthma model, each mouse was sensitized by intranasal administration of 75 μg of ovalbumin (OVA) (Calbiochem, La Jolla, Calif.) and 10 μg of lipopolysaccharide (LPS) (Calbiochem, La Jolla, Calif.) on 0 day, the first day, the second day, and the 7th day. Then, OVA (50 ug/head), hyaluronic acid (500 μg/head), anti-Flt1 peptide (GGNQWFI) (SEQ ID NO: 3) (10, 30, 100, 300, 1000 μg/head), and the hyaluronic acid-peptide conjugate with a low peptide content prepared from Preparation Example 3 ([…], based on the peptide content) were intranasally administered, respectively, after 14 days, 15 days, 21 days, 22 days to challenge. […]

The test system of test [4] is corneal neovascularization. Kind of test: Corneal neovascularization, genistein-loaded micelle (Experimental Example 13). Particulars: rat cornea; samples in PBS: Avastin 10 mg/ml, conjugate and micelle 3.2 mg/ml peptide; control group 86%. It counts as in vivo, Albino Sprague Dawley male rats.
Test [5] relates to vascular hyperpermeability due to diabetic retinopathy. Kind of test: Vascular hyperpermeability due to diabetic retinopathy, genistein-loaded micelle (Experimental Example 14). Particulars: normal = 1, negative control 2.54±0.20; Avastin 10 mg/ml; micelle 3.2 mg/ml peptide; four weeks after streptozotocin. It counts as in vivo, Sprague Dawley (SD) male rats. As to the method: First, each rat was injected intraperitonially with 60 mg/kg of streptozotocin dissolved in 10 mM citrate buffer at pH 4.5 in order for diabetes to be induced. In three days after the injection of streptozotocin, the rat was determined to develop diabetes when its serum concentration of glucose was at least 300 mg/dL. In a week after the injection of streptozotocin, 10 μL of each sample solution was injected into the vitroeus body.

With GGNQWFI [anti-Flt1 peptide, GGNQWFI], the “average intensity of the fluorescence of CNV lesion” value in test [1] is on record as 61.4±4.4%. For the same substance, the “structure of the retinal blood vessel (electron microscope)” value in test [2] was “the blood vessel had a rounded shape although the endothelial cell layer was thin”.

On to “HA-GGNQWFI: hyaluronic acid (MW 100 kDa) conjugated with GGNQWFI, 20 peptides per one molecule of HA-TBA (also: conjugated to hyaluronic acid, about 20 peptides per HA)”, for which the “bronchoalveolar lavage (BAL) cellularity” value in test [3] (1000 μg/head) was “less than half of the cellularity in the negative control group”. Further, the “bronchoalveolar lavage (BAL) cellularity, dose dependence” value in test [3] (10-1000 per head based on peptide content) is “sharply decreased and was found to be dose-dependent”. In test [4], the “average ratio of the neovascular area” value was 30%. Moreover, in test [5], the “average intensity of the fluorescence of retina relative to normal group (1)” value is listed as 1.58±0.17.
